Data as given in PubChem BioAssay AID1963826 (Molecular Pharmacology Branch, DTP, NCI, 2024).

System: 926638-142-R-J1-PDC complex spheroid viability
Assay: Anticancer human tumor 926638-142-R-J1-PDC patient-derived endometrial carcinoma cell line growth inhibition [POLQ]
Settings: for IC50: curve of first compound; for viability, T/C: stronger effect = lower value
Summary of the method: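 PDC + HUVEC + MSC complex spheroids; POLQ inhibitors ± partner drugs; top conc. at/near clinical Cmax, else 10 microM (SN-38 1 microM), half-log dilutions; 37 degrees C, 5% CO2.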

[1] = second compound 0.0316 µM, first compound 0.0316 µM
[2] = second compound 0.0316 µM, first compound 0.1 µM
[3] = second compound 0.0316 µM, first compound 0.316 µM
[4] = second compound 0.0316 µM, first compound 1 µM
[5] = second compound 0.0316 µM, first compound 3.16 µM
[6] = second compound 0.0316 µM, first compound 10 µM
[7] = second compound 0.1 µM, first compound 0.0316 µM
[8] = second compound 0.1 µM, first compound 0.1 µM
[9] = second compound 0.1 µM, first compound 0.316 µM
[10] = second compound 0.1 µM, first compound 1 µM
[11] = second compound 0.1 µM, first compound 3.16 µM
[12] = second compound 0.1 µM, first compound 10 µM
[13] = second compound 0.316 µM, first compound 0.0316 µM
[14] = second compound 0.316 µM, first compound 0.1 µM
[15] = second compound 0.316 µM, first compound 0.316 µM
[16] = second compound 0.316 µM, first compound 1 µM
[17] = second compound 0.316 µM, first compound 3.16 µM
[18] = second compound 0.316 µM, first compound 10 µM
[19] = second compound 1 µM, first compound 0.0316 µM
[20] = second compound 1 µM, first compound 0.1 µM
[21] = second compound 1 µM, first compound 0.316 µM
[22] = second compound 1 µM, first compound 1 µM
[23] = second compound 1 µM, first compound 3.16 µM
[24] = second compound 1 µM, first compound 10 µM
[25] = second compound 3.16 µM, first compound 0.0316 µM
[26] = second compound 3.16 µM, first compound 0.1 µM
[27] = second compound 3.16 µM, first compound 0.316 µM
[28] = second compound 3.16 µM, first compound 1 µM
[29] = second compound 3.16 µM, first compound 3.16 µM
[30] = second compound 3.16 µM, first compound 10 µM
[31] = second compound 10 µM, first compound 0.0316 µM
[32] = second compound 10 µM, first compound 0.1 µM
[33] = second compound 10 µM, first compound 0.316 µM
[34] = second compound 10 µM, first compound 1 µM
[35] = second compound 10 µM, first compound 3.16 µM
[36] = second compound 10 µM, first compound 10 µM
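Note: spheroids exposed to drugs for one week before readout.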
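Throughout, for viability, T/C: percent viability relative to DMSO vehicle control wells set as 100%.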

Work on `C#Cc1c(F)ccc2cc(O)cc(-c3ncc4c(N5CC6CCC(C5)N6)nc(OCC56CCCN5CC(F)C6)nc4c3F)c12` (stereo not drawn) + Nc1ccc(C#CCN(C(=O)Cc2ncc(C(F)(F)F)cc2C(F)(F)F)c2ccc(F)cc2)nn1 yielded an IC50 (second compound 0.0316 µM) of over 10 µM, an IC50 (second compound 0.1 µM) of over 10 µM and an IC50 (second compound 0.316 µM) of over 10 µM. For the same compound, the IC50 (second compound 1 µM) was over 10 µM, the IC50 (second compound 3.16 µM) was over 10 µM and the IC50 (second compound 10 µM) was over 10 µM. For the same compound, the viability, T/C [1] was 97.8%, the viability, T/C [2] was 95% and the viability, T/C [3] was 83.7%. It also gave a viability, T/C [4] of 80.1%, a viability, T/C [5] of 71.8% and a viability, T/C [6] of 64.5%. The viability, T/C [7] was 125%, the viability, T/C [8] was 83.2% and the viability, T/C [9] was 79.1%. The viability, T/C [10] was 82.2%, the viability, T/C [11] was 75.9% and the viability, T/C [12] was 71.2%. It also gave a viability, T/C [13] of 84.4%, a viability, T/C [14] of 101% and a viability, T/C [15] of 84.2%. It also gave a viability, T/C [16] of 76.7%, a viability, T/C [17] of 79.8% and a viability, T/C [18] of 59.3%. It also gave a viability, T/C [19] of 105%, a viability, T/C [20] of 101% and a viability, T/C [21] of 89.4%. It also gave a viability, T/C [22] of 85.6%, a viability, T/C [23] of 81.2% and a viability, T/C [24] of 59.2%. It also gave a viability, T/C [25] of 88%, a viability, T/C [26] of 93.4% and a viability, T/C [27] of 74.2%. For the same compound, the viability, T/C [28] was 87%, the viability, T/C [29] was 80.3% and the viability, T/C [30] was 66.3%. It also gave a viability, T/C [31] of 99.1%, a viability, T/C [32] of 78.2% and a viability, T/C [33] of 80%. The viability, T/C [34] was 70.7%, the viability, T/C [35] was 79.3% and the viability, T/C [36] was 53.1%.

Work on `C=CC(=O)N1CCN(c2nc(=O)n(-c3c(C)ccnc3C(C)C)c3nc(-c4c(O)cccc4F)c(F)cc23)C(C)C1` (stereo not drawn) + Nc1ccc(C#CCN(C(=O)Cc2ncc(C(F)(F)F)cc2C(F)(F)F)c2ccc(F)cc2)nn1 yielded an IC50 (second compound 0.0316 µM) of over 10 µM, an IC50 (second compound 0.1 µM) of over 10 µM and an IC50 (second compound 0.316 µM) of over 10 µM. It also gave an IC50 (second compound 1 µM) of over 10 µM, an IC50 (second compound 3.16 µM) of over 10 µM and an IC50 (second compound 10 µM) of over 10 µM. The viability, T/C [1] was 93.4%, the viability, T/C [2] was 106% and the viability, T/C [3] was 98.1%. For the same compound, the viability, T/C [4] was 92.5%, the viability, T/C [5] was 88.4% and the viability, T/C [6] was 52.5%. The viability, T/C [7] was 107%, the viability, T/C [8] was 103% and the viability, T/C [9] was 93.2%. It also gave a viability, T/C [10] of 86.6%, a viability, T/C [11] of 87.8% and a viability, T/C [12] of 55.8%. For the same compound, the viability, T/C [13] was 108%, the viability, T/C [14] was 91% and the viability, T/C [15] was 79.8%. It also gave a viability, T/C [16] of 90.1%, a viability, T/C [17] of 86.4% and a viability, T/C [18] of 53%. It also gave a viability, T/C [19] of 106%, a viability, T/C [20] of 86.8% and a viability, T/C [21] of 94.6%. It also gave a viability, T/C [22] of 82.3%, a viability, T/C [23] of 85.1% and a viability, T/C [24] of 53.5%. It also gave a viability, T/C [25] of 93%, a viability, T/C [26] of 99.7% and a viability, T/C [27] of 89.5%. The viability, T/C [28] was 93.6%, the viability, T/C [29] was 73.8% and the viability, T/C [30] was 53.8%. The viability, T/C [31] was 94.4%, the viability, T/C [32] was 98.5% and the viability, T/C [33] was 78.2%. The viability, T/C [34] was 78.7%, the viability, T/C [35] was 87% and the viability, T/C [36] was 60.4%.

`CC(C)n1c(=O)n(C)c2cnc3cc(F)c(-c4ccc(OCCCN5CCCCC5)nc4)cc3c21` + Nc1ccc(C#CCN(C(=O)Cc2ncc(C(F)(F)F)cc2C(F)(F)F)c2ccc(F)cc2)nn1 was tested, and the IC50 (second compound 0.0316 µM) was over 10 µM, the IC50 (second compound 0.1 µM) was over 10 µM and the IC50 (second compound 0.316 µM) was over 10 µM. The IC50 (second compound 1 µM) was over 10 µM, the IC50 (second compound 3.16 µM) was over 10 µM and the IC50 (second compound 10 µM) was over 10 µM. The viability, T/C [1] was 105%, the viability, T/C [2] was 98% and the viability, T/C [3] was 106%. For the same compound, the viability, T/C [4] was 107%, the viability, T/C [5] was 95% and the viability, T/C [6] was 73.6%. For the same compound, the viability, T/C [7] was 120%, the viability, T/C [8] was 103% and the viability, T/C [9] was 95.6%. It also gave a viability, T/C [10] of 106%, a viability, T/C [11] of 90.1% and a viability, T/C [12] of 74.6%. The viability, T/C [13] was 96.3%, the viability, T/C [14] was 99.2% and the viability, T/C [15] was 96%. For the same compound, the viability, T/C [16] was 93.9%, the viability, T/C [17] was 84.5% and the viability, T/C [18] was 65.4%. It also gave a viability, T/C [19] of 104%, a viability, T/C [20] of 106% and a viability, T/C [21] of 84.7%. The viability, T/C [22] was 90%, the viability, T/C [23] was 83% and the viability, T/C [24] was 73.7%. The viability, T/C [25] was 93.5%, the viability, T/C [26] was 84.7% and the viability, T/C [27] was 93%. The viability, T/C [28] was 93.8%, the viability, T/C [29] was 83.4% and the viability, T/C [30] was 71.2%. For the same compound, the viability, T/C [31] was 73.6%, the viability, T/C [32] was 85.6% and the viability, T/C [33] was 97.2%. For the same compound, the viability, T/C [34] was 96.1%, the viability, T/C [35] was 86.3% and the viability, T/C [36] was 67.1%.

Work on `CCc1cc2c(N3CCc4c(cc(Cn5ccnc5)cc4-c4cn(C)nc4C(F)(F)F)C3=O)cc(C)nc2c(OC)n1` + Nc1ccc(C#CCN(C(=O)Cc2ncc(C(F)(F)F)cc2C(F)(F)F)c2ccc(F)cc2)nn1 yielded an IC50 (second compound 0.0316 µM) of 1.13 µM, an IC50 (second compound 0.1 µM) of 0.426 µM and an IC50 (second compound 0.316 µM) of 0.829 µM. It also gave an IC50 (second compound 1 µM) of 0.478 µM, an IC50 (second compound 3.16 µM) of 0.728 µM and an IC50 (second compound 10 µM) of 0.503 µM. It also gave a viability, T/C [1] of 86.9%, a viability, T/C [2] of 66.6% and a viability, T/C [3] of 65.4%. The viability, T/C [4] was 43.6%, the viability, T/C [5] was 51.3% and the viability, T/C [6] was 33.6%. The viability, T/C [7] was 90.7%, the viability, T/C [8] was 66.7% and the viability, T/C [9] was 52.7%. The viability, T/C [10] was 40.9%, the viability, T/C [11] was 42.1% and the viability, T/C [12] was 28.2%. It also gave a viability, T/C [13] of 83%, a viability, T/C [14] of 70.4% and a viability, T/C [15] of 55%. The viability, T/C [16] was 47.8%, the viability, T/C [17] was 44.1% and the viability, T/C [18] was 27.6%. For the same compound, the viability, T/C [19] was 69.3%, the viability, T/C [20] was 69.8% and the viability, T/C [21] was 56.6%. It also gave a viability, T/C [22] of 37.9%, a viability, T/C [23] of 43.5% and a viability, T/C [24] of 30.1%. It also gave a viability, T/C [25] of 76.3%, a viability, T/C [26] of 58.2% and a viability, T/C [27] of 57%. It also gave a viability, T/C [28] of 47.2%, a viability, T/C [29] of 46.9% and a viability, T/C [30] of 31.6%. It also gave a viability, T/C [31] of 60.2%, a viability, T/C [32] of 63.8% and a viability, T/C [33] of 53.8%. It also gave a viability, T/C [34] of 39.6%, a viability, T/C [35] of 42% and a viability, T/C [36] of 27.2%.
